Measured values as given in patent US12528792B2, “Sulfonamide compounds and the use thereof in the treatment of cancer” (TROBIO THERAPEUTICS PTY LTD, priority 2019, dated 2026).

Columns and labels:
Format in all cases: cell-based
[1] = system: A549 (NSCLC) cells; experiment: Anti-proliferative activity, Cell-Titre luminescent viability assay; conditions: Homo sapiens, 72 h exposure, Cell-Titre luminescent reagent
How it was run: (§1)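 Cells attached 24 h at 37° C., 5% CO2, then treated 72 h with compound at 0.3–100 μM or 0.1–30 μM. Viability read by Cell-Titre luminescence after 30 min reagent exposure, normalized to vehicle; EC50 from variable-slope sigmoidal nonlinear regression.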

[2] = system: A2780 (ovarian) cells; experiment: as above; conditions: Homo sapiens, 72 h exposure, Cell-Titre luminescent reagent
How it was run: as §1

[3] = system: PC3 (prostate) cells; experiment: as above; conditions: 72 h exposure, Cell-Titre luminescent reagent
How it was run: as §1

[4] = system: MIA PaCa-2 (pancreatic) cells; experiment: as above; conditions: Homo sapiens, 72 h exposure, Cell-Titre luminescent reagent
How it was run: as §1

[5] = system: Caco-2 (colorectal) cells; experiment: as above; conditions: Homo sapiens, 72 h exposure, Cell-Titre luminescent reagent
How it was run: as §1

[6] = system: A2780 ovarian cancer cells; experiment: In vitro growth inhibition assay, Alamar Blue, single agent IC50; conditions: Homo sapiens, 72 h drug exposure, Alamar Blue, 384-well (26*: 96-well plate format), read-out: Single-agent IC50
Method: (§2) In vitro growth inhibition assays were performed as technical triplicate in two independent experiments and cell viability was assessed by Alamar Blue assay readout. Briefly, cells in logarithmic phase growth were seeded in 384-well plates in a 50 μL/well assay volume. Cells were seeded at 1,200 cells/well using a Multidrop 384 (Thermo Scientific) and allowed to adhere at 37° C. with 5% CO2, in a humidified atmosphere (LiCONIC incubator). After 24 hours incubation, test compounds, positive control (20 μM Thonzonium bromide, 100% kill) and vehicle only (0.4% DMSO) were added into wells of each assay plate using a Tecan HP D300 Digital Dispenser in technical triplicate under minimum light. Following 72 hours drug exposure, metabolic activity was detected by addition of 10% (v/v) Alamar Blue reagent to each assay well using a Multidrop Cambi (Thermo Scientific) and determined by measurement of fluorescence intensity (excitation 555 nm, emission 585 nm) using an EnSpire (Perkin Elmer) plate reader. Readings were performed at 0 hour (background) and after 6 hours alamar blue incubation at 37° C.
Each drug was tested as a 10-point concentration series with two-fold serial dilutions of each drug. The concentration series for compounds 6 and 8 was 100, 50, 25, 12.5, 6.25, 3.125, 1.563, 0.781, 0.391 and 0.195 μM and for compounds 24, 43 and 48 was 50, 25, 12.5, 6.25, 3.125, 1.563, 0.781, 0.391, 0.195 and 0.098 μM for the two independent experiments. The concentration series for vinorelbine and paclitaxel was 100, 50, 25, 12.5, 6.25, 3.125, 1.5625, 0.781, 0.391 and 0.195 nM. Thonzonium bromide (20 μM) and 0.4% DMSO were used as positive and vehicle controls, respectively. The IC50 value was calculated by derivation of the best-fit line using a sigmoidal dose response model (Activity Base Software Suite, IDES).
Activity Base software suite (IDES, version 8.3.0.175) was used for data analysis. Cell survival is expressed as a percentage of viable cells. IC50 concentrations were calculated by derivation of the best-fit line using a sigmoidal dose response model with technical triplicate data points.

[7] = system: SK-N-SH neuroblastoma cells; experiment: Cytotoxicity assay, MTS viability; conditions: Homo sapiens, 72 hours
How it was run: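 SK-N-SH cells, 2×10^3/well in DMEM with 10% FBS at 37 °C, treated with 1:2 compound series from 100 μM; MTS viability read after 72 hours. Viability normalised to vehicle control; EC50 taken from dose-response curves.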

[8] = system: A2780 ovarian cancer cells; experiment: Drug combination screen, 6x6 dose matrix, Bliss-independence synergy; design: key to Max. Synergy, Vinorelbine: Bliss synergy score; 0 = no synergy, negative = antagonism; highest in matrix; key to Total Synergy, Vinorelbine: sum of Bliss synergy scores across the dose matrix; conditions: 72 h (26*: 96-well plate format)
Method: as §2
The two drugs in each combination matrix were dispensed using a Tecan HP D300 Digital Dispenser. Assays were performed in triplicate for each drug combination (test compound/vinorelbine and test compound/paclitaxel combinations). Synergistic drug interactions were calculated from the averaged cell viability data using the methodology described below.
Synergistic drug interactions were determined for each pa1rw1se drug combination by applying the Bliss-independence model that assumes independence of drug mechanisms. Prior to the analysis, percent cell viability (CV) for combination data were converted to fractional cell growth inhibition (GI) by the formula: […]
The Bliss additivism model was used to calculate a predicted combined response C to two single agents with responses A and B (using GI values), as follows:
The final score for any combination was reported as the difference between the value predicted by the additive model and the experimentally observed value, normalised to 100. Using GI values the maximum possible synergy score is 100, with 0 indicating no synergy and negative indicating possible antagonism. Scores were also reported as a “Max synergy” score, which is the highest individual synergy score for each combination matrix, and a “Total synergy” score, which was obtained by summation of each individual synergy score for the matrix.
The single agent IC50 values for the test compounds and their synergy scores in combination with vinorelbine and paclitaxel are presented in Table 4. The data is listed as IC50 mean from technical triplicates for two independent experiments. The averaged IC50 concentrations for the single agents from both runs were then used to generate the 6×6 dose matrices in the synergy experiment. Synergy scores for each drug combination were calculated by the Bliss-independence model. The maximum synergy and total synergy scores for each combination in A2780 cells are listed.

IC50 [1]: 6.8 µM
IC50 [2]: 4.9 µM
IC50 [3]: 7.7 µM
IC50 [4]: 10.1 µM
IC50 [5]: 6.1 µM
IC50 [6]: 12.5 µM
Compound: O=C(Nc1ccc(C(F)(F)F)cc1)c1ccn(S(=O)(=O)c2ccc3[nH]ccc3c2)c1 [Compound 26, 1-((1H-indol-5-yl)sulfonyl)-N-(4-(trifluoromethyl)phenyl)-1H-pyrrole-3-carboxamide]
IC50 [7]: 7.87 µM
Max. Synergy, Paclitaxel ([8]; combination with paclitaxel, Bliss score): 7.83
Total Synergy, Paclitaxel ([8]; combination with paclitaxel, sum of Bliss scores of the matrix): 61.23
Max. Synergy, Vinorelbine ([8]; combination with vinorelbine, Bliss score): 10.86
Total Synergy, Vinorelbine ([8]; combination with vinorelbine, sum of Bliss scores of the matrix): 60.91
